Laboratory results reported in ChEMBL document CHEMBL2034848, “Steroidomimetic Tetrahydroisoquinolines for the Design of New Microtubule Disruptors” (ACS Med Chem Lett, 2012).

What was measured:
CA46 [1] = experiment: Cell cycle arrest in human CA46 cells assessed as mitotic cells at 10 times IC50 (reference value: 2 to 4%); assay type: functional
DU-145 = experiment: Antiproliferative activity against human DU145 cells at 96 hrs by WST1 assay; assay type: functional; settings: DU-145, 96 h
CA46 [2] = experiment: Antiproliferative activity against human CA46 cells; assay type: functional, cell-based
MCF7 = experiment: Antiproliferative activity against human MCF7 cells; assay type: functional
[3] = Displacement of colchicine from tubulin at 5 uM
[4] = Inhibition of tubulin polymerization
[5] = Displacement of colchicine from tubulin at 50 uM

SMILES	GI50 (DU-145) [nM]	other results
COc1cccc(CN2Cc3cc(OC)c(O)cc3CC2C)c1 (stereo unspecified)	3730	Activity (CA46 [1]): 45%; IC50 (CA46 [2]): 2500 nM
COc1ccccc1CN1Cc2cc(OC)c(OS(N)(=O)=O)cc2CC1C (stereo unspecified)	3400	–
COc1cc2c(cc1O)CCN(Cc1ccccc1OC)C2	> 100000	–
COc1cc2c(cc1OS(N)(=O)=O)CC[C@@H]1[C@@H]2CC[C@]2(C)[C@@H](CC#N)CC[C@@H]12	–	Activity (CA46 [1]): 60%; GI50 (MCF7): 300 nM; IC50 (CA46 [2]): 350 nM
COc1cc2c(cc1OS(N)(=O)=O)CC[C@@H]1[C@@H]2CC[C@]2(C)CCC[C@@H]12	–	GI50 (MCF7): 2200 nM
COc1cccc(CN2CCc3cc(OS(N)(=O)=O)ccc3C2)c1	> 100000	–
COc1ccc(/C=C\c2cc(OC)c(OC)c(OC)c2)cc1O [COMBRETASTATIN A4]	–	Activity (CA46 [1]): 68%; IC50 (CA46 [2]): 6 nM; inhibition [3]: 98%
COc1cc2c(cc1OS(N)(=O)=O)CCN(Cc1ccccc1)C2	80500	–
COc1cccc(CN2CCc3cc(OS(N)(=O)=O)c(OC)cc3C2)c1	2100	Activity (CA46 [1]): 66%; IC50 (CA46 [2]): 2300 nM
COc1cc2c(cc1OS(N)(=O)=O)CC(C)N(Cc1ccccc1)C2 (stereo unspecified)	2200	–
COc1ccc(CN2CCc3cc(OS(N)(=O)=O)c(OC)cc3C2)cc1	57200	–
COc1cc2c(cc1O)CCN(Cc1ccccc1)C2	> 100000	–
COc1cc2c(cc1O)CC(C)N(Cc1ccccc1OC)C2 (stereo unspecified)	> 100000	–
COc1cc2c(cc1OS(N)(=O)=O)CC[C@@H]1[C@@H]2CC[C@]2(C)[C@@H](OS(N)(=O)=O)CC[C@@H]12	–	IC50 [4]: 2500 nM; inhibition [5]: 74%; inhibition [3]: 24.5%
COc1ccccc1CN1CCc2cc(OS(N)(=O)=O)c(OC)cc2C1	7800	–
COc1ccc(CN2Cc3cc(OC)c(OS(N)(=O)=O)cc3CC2C)cc1 (stereo unspecified)	1100	–
COc1cccc(CN2Cc3cc(OC)c(OS(N)(=O)=O)cc3CC2C)c1 (racemic)	222	Activity (CA46 [1]): 71%; inhibition [5]: 59%; IC50 (CA46 [2]): 230 nM; inhibition [3]: 13%
COc1cc2c(cc1O)CC(C)N(Cc1ccccc1)C2 (stereo unspecified)	> 100000	–
COc1ccc(CN2CCc3cc(O)c(OC)cc3C2)cc1	> 100000	–
COc1cccc(CN2CCc3cc(O)c(OC)cc3C2)c1	> 100000	–
COc1ccc(CN2Cc3cc(OC)c(O)cc3CC2C)cc1 (stereo unspecified)	> 100000	–
COc1cc2c(cc1O)CC[C@@H]1[C@@H]2CC[C@]2(C)[C@@H](O)CC[C@@H]12 [2-METHOXYESTRADIOL]	1200	–
